# From patent US11214594B2, “Antimicrobial peptide having synergistic antibacterial effect with antibiotics on multidrug resistant bacteria, and use thereof” (priority 2016, dated 2022)
# Like-named read-outs stand apart in the source and are kept apart here. Where a SMILES comes first, the peptide text is derived from it. [ ]: non-standard residue; d: D form.
# Experiments:
# [1] = test system: E. coli; assay: MIC of antibiotic during combined treatment with antimicrobial peptide; type: cell-based, Escherichia coli; conditions: for Antibiotic MIC, Erythromycin / Antibiotic MIC, Linezolid / Antibiotic MIC, Vancomycin: E. coli
# Method in brief: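 Checkerboard-type MIC of peptide–antibiotic mixtures in MH medium: the antibiotic was serially diluted in MH medium and added to wells, then the reversed arrangement was also tested.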
# [2] = test system: P. aeruginosa; assay: microbe, parasite or virus in culture; type: cell-based, Pseudomonas aeruginosa
# Method in brief: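 Broth microdilution in MH medium: strains diluted to 2×10^6 CFU were mixed with equal volumes of twofold serial peptide dilutions in MH medium. MIC was taken as the lowest peptide concentration preventing bacterial growth.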
# [3] = test system: E. coli; type: cell-based, Escherichia coli; conditions: E. coli
# Method in brief: (§1)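 Strains in MH medium at 2×10^6 CFU/ml were mixed with peptide diluted stepwise (2:1) from its MIC, then antibiotic dilutions in MH medium were added to give the antibiotic MIC. The reversed set-up, peptide titrated against fixed antibiotic, gave the peptide MIC.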
# [4] = test system: MDREC 1229; type: cell-based, Escherichia coli
# Method in brief: as §1
# [5] = test system: MDRAB 12035; assay: MIC of antimicrobial peptide during combined treatment with antibiotic; type: cell-based, Acinetobacter baumannii
# Method in brief: as §1
# [6] = test system: A. baumannii; assay: as above; type: cell-based, Acinetobacter baumannii
# Method in brief: as §1
# [7] = linezolid 64 μg/ml (Conc./MIC 1/8)
# [8] = linezolid 512 μg/ml (Conc./MIC 1)
# [9] = vancomycin 512 μg/ml (Conc./MIC 1/2)
# [10] = vancomycin 1024 μg/ml (Conc./MIC 1)
# [11] = erythromycin 4 μg/ml (Conc./MIC 1/8)
# [12] = erythromycin 8 μg/ml (Conc./MIC 1/4)
smiles,measurement,setting,value
"CC[C@H](C)[C@H](NC(=O)[C@H](CCCCN)NC(=O)[C@H](Cc1c[nH]c2ccccc12)NC(=O)[C@@H](N)CCCNC(=N)N)C(=O)N[C@@H](Cc1ccccc1)C(=O)N[C@@H](CCCCN)C(=O)N[C@@H](CCCCN)C(=O)N[C@H](C(=O)N[C@H](CC(C)C)C(=O)N[C@@H](CCCCN)C(=O)N[C@@H](CC(C)C)C(=O)N[C@@H](CC(C)C)C(=O)N[C@@H](Cc1c[nH]cn1)C(=O)N[C@@H](CCCCN)C(=O)N[C@@H](Cc1ccccc1)C(=O)N[C@@H](CCCCN)C(=O)N[C@@H](CCCCN)C(=O)N[C@@H](Cc1ccccc1)C(N)=O)[C@@H](C)CC [PapMA-21, RWK IFK KIl KLL HKF KKF-NH2] (H-RWKIFKKI[dL]KLLHKFKKF-NH2; N-terminus assumed)",Synergistic effect of antibacterial activity with existing antibiotics compared with PapMA-1,[1]; E. coli and MDREC1229,level similar to that of the PapMA-1 peptide
same,"Antibiotic MIC, Erythromycin",[1]; erythromycin combined with peptide at 1 μg/ml,64 µg/mL
same,"Antibiotic MIC, Erythromycin",[1]; erythromycin combined with peptide at 2 μg/ml,32 µg/mL
same,"Antibiotic MIC, Erythromycin",[1]; erythromycin combined with peptide at 4 μg/ml,8 µg/mL
same,"Antibiotic MIC, Erythromycin",[1]; erythromycin combined with peptide at 6 μg/ml,2 µg/mL
same,"Antibiotic MIC, Erythromycin",[1]; erythromycin combined with peptide at 8 μg/ml,1 µg/mL
same,"Antibiotic MIC, Erythromycin",[1]; erythromycin combined with peptide at 16 μg/ml,0.25 µg/mL
same,"Antibiotic MIC, Erythromycin",[1]; erythromycin combined with peptide at 32 μg/ml,0 µg/mL
same,"Antibiotic MIC, Erythromycin",[1]; erythromycin combined with peptide at 64 μg/ml,0 µg/mL
same,"Antibiotic MIC, Linezolid",[1]; linezolid combined with peptide at 1 μg/ml,>128 µg/mL
same,"Antibiotic MIC, Linezolid",[1]; linezolid combined with peptide at 2 μg/ml,128 µg/mL
same,"Antibiotic MIC, Linezolid",[1]; linezolid combined with peptide at 4 μg/ml,64 µg/mL
same,"Antibiotic MIC, Linezolid",[1]; linezolid combined with peptide at 6 μg/ml,32 µg/mL
same,"Antibiotic MIC, Linezolid",[1]; linezolid combined with peptide at 8 μg/ml,16 µg/mL
same,"Antibiotic MIC, Linezolid",[1]; linezolid combined with peptide at 16 μg/ml,8 µg/mL
same,"Antibiotic MIC, Linezolid",[1]; linezolid combined with peptide at 32 μg/ml,0 µg/mL
same,"Antibiotic MIC, Linezolid",[1]; linezolid combined with peptide at 64 μg/ml,0 µg/mL
same,"Antibiotic MIC, Vancomycin",[1]; vancomycin combined with peptide at 1 μg/ml,>128 µg/mL
same,"Antibiotic MIC, Vancomycin",[1]; vancomycin combined with peptide at 2 μg/ml,>128 µg/mL
same,"Antibiotic MIC, Vancomycin",[1]; vancomycin combined with peptide at 4 μg/ml,>128 µg/mL
same,"Antibiotic MIC, Vancomycin",[1]; vancomycin combined with peptide at 6 μg/ml,64 µg/mL
same,"Antibiotic MIC, Vancomycin",[1]; vancomycin combined with peptide at 8 μg/ml,32 µg/mL
same,"Antibiotic MIC, Vancomycin",[1]; vancomycin combined with peptide at 16 μg/ml,8 µg/mL
same,"Antibiotic MIC, Vancomycin",[1]; vancomycin combined with peptide at 32 μg/ml,0 µg/mL
same,"Antibiotic MIC, Vancomycin",[1]; vancomycin combined with peptide at 64 μg/ml,0 µg/mL
same,Minimal inhibitory concentration MIC,[2],32 µg/mL
same,Peptide MIC,[3]; with Erythromycin 16 μg/ml (Conc./MIC 1/8),4 µg/mL
same,Peptide MIC,[3]; with Erythromycin 32 μg/ml (Conc./MIC 1/4),2 µg/mL
same,Peptide MIC,[3]; with Erythromycin 64 μg/ml (Conc./MIC 1/2),1 µg/mL
same,Peptide MIC,[3]; with Erythromycin […] (Conc./MIC 1),0 µg/mL
same,Peptide MIC,[3]; with Linezolid 32 μg/ml (Conc./MIC 1/8),8 µg/mL
same,Peptide MIC,[3]; with Linezolid 64 μg/ml (Conc./MIC 1/4),4 µg/mL
same,Peptide MIC,[3]; with Linezolid […] (Conc./MIC 1),0 µg/mL
same,Peptide MIC,[3]; with Linezolid […] (Conc./MIC 1/2),2 µg/mL
same,Peptide MIC,[3]; with Vancomycin 512 μg/ml (Conc./MIC 1/2),2 µg/mL
same,Peptide MIC,[3]; with Vancomycin 1024 μg/ml (Conc./MIC 1),0 µg/mL
same,Peptide MIC,[3]; with Vancomycin […] (Conc./MIC 1/4),4 µg/mL
same,Peptide MIC,[3]; with Vancomycin […] (Conc./MIC 1/8),8 µg/mL
same,Peptide MIC during treatment with antibiotic,[4]; erythromycin 32 μg/ml (Conc./MIC 1/8),2 µg/mL
same,Peptide MIC during treatment with antibiotic,[4]; erythromycin 64 μg/ml (Conc./MIC 1/4),2 µg/mL
same,Peptide MIC during treatment with antibiotic,[4]; erythromycin […] (Conc./MIC 1),0 µg/mL
same,Peptide MIC during treatment with antibiotic,[4]; erythromycin […] (Conc./MIC 1/2),1 µg/mL
same,Peptide MIC during treatment with antibiotic,[4]; [7],8 µg/mL
same,Peptide MIC during treatment with antibiotic,[4]; [8],0 µg/mL
same,Peptide MIC during treatment with antibiotic,[4]; linezolid […] (Conc./MIC 1/2),1 µg/mL
same,Peptide MIC during treatment with antibiotic,[4]; linezolid […] (Conc./MIC 1/4),4 µg/mL
same,Peptide MIC during treatment with antibiotic,[4]; [9],2 µg/mL
same,Peptide MIC during treatment with antibiotic,[4]; [10],2 µg/mL
same,Peptide MIC during treatment with antibiotic,[4]; vancomycin […] (Conc./MIC 1/4),4 µg/mL
same,Peptide MIC during treatment with antibiotic,[4]; vancomycin […] (Conc./MIC 1/8),8 µg/mL
same,Peptide MIC during treatment with erythromycin,[5]; [11],8 µg/mL
same,Peptide MIC during treatment with erythromycin,[5]; [12],8 µg/mL
same,Peptide MIC during treatment with erythromycin,[5]; erythromycin 16 μg/ml (Conc./MIC 1/2),4 µg/mL
same,Peptide MIC during treatment with erythromycin,[5]; erythromycin 32 μg/ml (Conc./MIC 1),0 µg/mL
same,Peptide MIC during treatment with linezolid,[5]; [7],4 µg/mL
same,Peptide MIC during treatment with linezolid,[5]; [8],0 µg/mL
same,Peptide MIC during treatment with linezolid,[5]; linezolid […] (Conc./MIC 1/2),1 µg/mL
same,Peptide MIC during treatment with linezolid,[5]; linezolid […] (Conc./MIC 1/4),4 µg/mL
same,Peptide MIC during treatment with vancomycin,[5]; [9],2 µg/mL
same,Peptide MIC during treatment with vancomycin,[5]; [10],1 µg/mL
same,Peptide MIC during treatment with vancomycin,[5]; vancomycin […] (Conc./MIC 1/4),4 µg/mL
same,Peptide MIC during treatment with vancomycin,[5]; vancomycin […] (Conc./MIC 1/8),4 µg/mL
same,Peptide MIC during treatment with erythromycin,[6]; [11],8 µg/mL
same,Peptide MIC during treatment with erythromycin,[6]; [12],4 µg/mL
